# According to patent US12599602B2, “Methods for treating cholestasis” (Mirum Pharmaceuticals, Inc., priority 2019, dated 2026):
# Counter-ions that a name gives are not always drawn.
# System: Overweight and obese adults
# Experiment: Phase 1 blinded, placebo-controlled, dose-ranging clinical study (NCT02475317), fecal bile acid excretion
# Procedure: Participants consumed a low-fiber diet (<10 mg/day) for 2 days before randomization and during the 7-day treatment period. Measurements were taken of fBA, sBA concentration, and serum 7αC4 concentration (which is a biomarker of bile acid synthesis) prior to drug administration and at day 7.
structure (smiles),measurement,setting,value
"CCCC[C@]1(CC)CS(=O)(=O)c2ccc(N(C)C)cc2[C@@H](c2cccc(NC(=O)N[C@@H]3O[C@H](COS(=O)(=O)O)[C@@H](O)[C@H](OCc4ccccc4)[C@H]3O)c2)[C@H]1O [volixibat, (2R,3R,4S,5R,6R)-4-benzyloxy-6-{3-[3-((3S,4R,5R)-3-butyl-7-dimethylamino-3-ethyl-4-hydroxy-1,1-dioxo-2,3,4,5-tetrahydro-1H-benzo[b]thiepin-5-yl)-phenyl]-ureido}-3,5-dihydroxy-tetrahydro-pyran-2-ylmethyl) hydrogen sulfate]",Mean sBA levels,7 days,not elevated
same,fBA excretion,across doses,increased in a dose-dependent manner
same,treatment-emergent adverse events occurring in over 10% of participants,all doses,headache and diarrhea
same,"treatment-emergent adverse events, severity",all doses,"mild, and none were serious"
same,Mean serum 7αC4,baseline to day 7,increased
